Patent publication US20240269157A1, “COMPOSITIONS AND METHODS FOR OVERCOMING MICROENVIRONMENT-MEDIATED RESISTANCE VIA E-SELECTIN TARGETING” (GLYCOMIMETICS, INC., priority 2021, published 2024)

What was measured:
luc-MV4.11 cells = test: MV4.11 AML model survival; assay type: in vivo, NSG mice; conditions: 40 mg/kg Compound A i.p., 100 mg/kg venetoclax oral, 14 days once daily
Protocol: To evaluate the efficacy of targeting E-selectin with Compound A in combination with venetoclax, an in vivo MV4.11 AML model was employed (FIG. 16).
luc-MV4.11 cells (5×10^6 cells/mouse) were transplanted into NSG mice. Mice were divided into four groups: vehicle treatment only; 40 mg/kg of Compound A (intraperitoneal, 14 day once daily); 100 mg/kg venetoclax (oral, 14 days once daily), and a combination of 40 mg/kg Compound A and 100 mg/kg venetoclax. Drug treatment was initiated on day 10 post-transplantation.

[1] = test system: patient-derived primary AML xenograft (JAK2 and c-Kit); test: PDX model (mutations in JAK2 and c-Kit), LSC retention and CyTOF of BM cells; assay type: in vivo, mice
Excerpt: (§1) Intra-vital imaging was employed to investigate the effects of Compound B on AML cell motility in the bone marrow of triple reporter mice (Blood: dextran-TRITC; Host T-cells: DsRed; Host myeloid CD11 cells: EYFP) injected with AML cells carrying a turquoise fluorescent protein reporter gene. […] Individual cells were dislodged from the niche and traveled long-distance (FIG. 17C). The combined inhibition of E-selectin and CXCR4 depleted bone marrow vascular niche areas of leukemia cells.
In order to better understand how the augmented AML mobilization improves the efficacy of AML therapy, BM cells from PDX mice treated for 2 weeks with Compound A, Compound B, venetoclax/HMA (Ven/HMA), and their combinations were analyzed by single-cell proteomics (CyTOF). […] However, pharmacological antagonists of E-selectin (Compound A) or E-selectin/CXCR4 (Compound B) protected endothelial cells from Ven/HMA-induced detrimental insults through upregulation of survival signaling cascades, including pAKT, pERK, pMAPK and […] eNOS expression in endothelial cells compared to Ven/HMA treatment alone.

[2] = test system: leukemia cells with ECs and MSCs; conditions: Zhang et al., 2016, cited from earlier work
leukemia cells in the BM = conditions: in vivo; Zhang et al., 2016; cited from earlier work
AML cells in bone marrow = test: Intra-vital 2-photon imaging of AML cell motility in bone marrow; assay type: in vivo, triple reporter mice; conditions: from 2.2 μm/min, p<0.001; i.v. administration
Excerpt: as §1

[3] = in combination with Ven/HMA, 2 weeks, CyTOF of BM cells

Structure (SMILES)	median survival time (MST) (luc-MV4.11 cells)	levels of E-selectin ligand, mTOR, pFAK, pRb, cMyc [1, 3]	p21 and cleaved caspase3 [1, 3]	protection of MSC ([1]; mouse, in vivo)	protection of endothelial cells from Ven/HMA-induced detrimental insults ([1]; upregulated pAKT, pERK, pMAPK, decreased eNOS vs Ven/HMA alone)	leukemia cell adhesion to ECs and MSCs [2]	BM-mediated protection of leukemic cells during FLT3-targeted therapy ([2]; in vitro)	leukemia cells in the BM (leukemia cells in the BM)	AML cell motility (AML cells in bone marrow)
CC1(C)CCC(CN2CCN(c3ccc(C(=O)NS(=O)(=O)c4ccc(NCC5CCOCC5)c([N+](=O)[O-])c4)c(Oc4cnc5[nH]ccc5c4)c3)CC2)=C(c2ccc(Cl)cc2)C1 [venetoclax]	46 days	–	–	–	–	–	–	–	–
CCC1CC(C(=O)NCCNCc2ccc(CN3CCCNCCNCCCNCC3)c(Br)c2)CC(OC2OC(CO)C(O)C(O[C@@H](CC3CCCCC3)C(=O)O)C2NC(C)=O)C1OC1OC(C)C(O)C(O)C1O (stereo partly drawn) [Compound B]	–	diminished	increasing	protected	protected	markedly reduced	eliminated	effectively reduced	5.4 μm/min
